Reference: US4160829A, “Antibacterial 1,2,4-oxadiazolylacetamido cephalosporins” (Gist-Brocades N.V., priority 1972, dated 1979)

How the values were obtained:
Staph.aureus A 321 = assay: agar serial dilution test; format: cell-based, Staphylococcus aureus; details: Staphylococcus aureus, A321, 24 h, agar serial dilution, 24 hours, 37° C.; read-out: minimal inhibitory concentration (MIC)
Staph.aureus A 2000 = assay: agar serial dilution test; format: cell-based, Staphylococcus aureus; details: Staphylococcus aureus, A2000, 24 h, agar serial dilution, 24 hours, 37° C.; read-out: minimal inhibitory concentration (MIC)
Dipl.pneum. L 54 = assay: agar serial dilution test; format: cell-based, Diplococcus pneumoniae; details: Streptococcus pneumoniae; agar serial dilution, 24 hours, 37° C.; read-out: minimal inhibitory concentration (MIC)
Past.multo. A 723 = assay: agar serial dilution test; format: cell-based, Pasteurella multocida; details: Pasteurella multocida; agar serial dilution, 24 hours, 37° C.; read-out: minimal inhibitory concentration (MIC)
Salm.dubl. P 43 = assay: agar serial dilution test; format: cell-based, Salmonella dublin; details: Salmonella enterica; agar serial dilution, 24 hours, 37° C.; read-out: minimal inhibitory concentration (MIC)
Esch.coli U 20 = assay: agar serial dilution test; format: cell-based, Escherichia coli; details: Escherichia coli, U20; agar serial dilution, 24 hours, 37° C.; read-out: minimal inhibitory concentration (MIC)
Prot.mirab. L 93 = assay: agar serial dilution test; format: cell-based, Proteus mirabilis; details: Proteus mirabilis; agar serial dilution, 24 hours, 37° C.; read-out: minimal inhibitory concentration (MIC)
Prot.morg. 2241 = assay: agar serial dilution test; format: cell-based; details: 24 h, agar serial dilution, 24 hours, 37° C.; read-out: minimal inhibitory concentration (MIC)
Salm.typh. R 172 = assay: agar serial dilution test; format: cell-based; details: 24 h, read-out: minimal inhibitory concentration (MIC)
Proteus mirabilis A 1200 = assay: protection test; format: in vivo; details: s.c.

Compound: Cc1noc(CC(=O)N[C@@H]2C(=O)N3C(C(=O)O)=C(CSc4nnnn4C)CS[C@H]23)n1 [Compound G, sodium-7[(3-methyl-1,2,4-oxadiazol-5-yl)-acetamido] 3 [1-methyl-tetrazol-5-yl-mercaptomethyl] 3-cephem-4-carboxylate]
- MIC (Staph.aureus A 321): 0.25 µg/mL
- MIC (Staph.aureus A 2000): 0.75 µg/mL
- MIC (Dipl.pneum. L 54): 0.5 µg/mL
- MIC (Past.multo. A 723): 1 µg/mL
- MIC (Salm.dubl. P 43): 1.5 µg/mL
- MIC (Esch.coli U 20): 0.75 µg/mL
- MIC (Prot.mirab. L 93): 3 µg/mL
- MIC (Prot.morg. 2241): 100 µg/mL
- MIC (Salm.typh. R 172): 1.5 µg/mL
- ED50 (Proteus mirabilis A 1200; Proteus mirabilis, A1200, sc, protection test, read-out: ED50): 8.7 mg/kg
- Potency ratio (Proteus mirabilis A 1200; reference Cefalotin): 1,4
